Results as given in ChEMBL document CHEMBL1201862, “PubChem BioAssay data set” (2004).
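Values below derive from 48-hour exposures of cells grown in 96-well plates, with endpoints linearly interpolated between the two concentrations bracketing the appropriate inhibition level. GI50 marks 50% less growth.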 Active and inactive are the calls of the source. No stated cut-off is given here; in the data, active = GI50 up to about 1.1 µM and inactive = higher.

Columns and labels:
Assay in all cases: inhibition of tumour cell growth, NCI panel, 48 h
SK-MEL-28 = test system: SK-MEL-28
NCI-H460 = test system: NCI-H460
NCI-H23 = test system: NCI-H23
RXF 393 = test system: RXF 393
COLO 205 = test system: COLO 205
SNB-78 = test system: SNB-78
HT-29 = test system: HT-29
UACC-257 = test system: UACC-257
CCRF-CEM = test system: CCRF-CEM
XF498 = test system: XF498
U-251 = test system: U-251
DLD-1 = test system: DLD-1
SK-MEL-2 = test system: SK-MEL-2
A498 = test system: A498
HOP-62 = test system: HOP-62
M14 = test system: M14
RPMI-8226 = test system: RPMI-8226
LXFL 529 = test system: LXFL 529
DMS-114 = test system: DMS-114
SN12C = test system: SN12C
NCI-H522 = test system: NCI-H522
K562 = test system: K562
RXF 631 = test system: RXF 631
KM12 = test system: KM12
UO-31 = test system: UO-31
SNB-19 = test system: SNB-19
SNB-75 = test system: SNB-75
SK-MEL-5 = test system: SK-MEL-5
Malme-3M = test system: Malme-3M
CAKI-1 = test system: CAKI-1
OVCAR-5 = test system: OVCAR-5
HOP-92 = test system: HOP-92
ACHN = test system: ACHN
LOX IMVI = test system: LOX IMVI
SF-295 = test system: SF-295
SF-539 = test system: SF-539
OVCAR-8 = test system: OVCAR-8
M19-MEL = test system: M19-MEL
786-0 = test system: 786-0
EKVX = test system: EKVX
IGROV-1 = test system: IGROV-1
OVCAR-4 = test system: OVCAR-4
HCT-15 = test system: HCT-15
HOP-18 = test system: HOP-18
HL-60 = test system: HL-60
TK-10 = test system: TK-10
DMS-273 = test system: DMS-273
HCC 2998 = test system: HCC 2998
KM-20L2 = test system: KM-20L2
OVCAR-3 = test system: OVCAR-3
A549 = test system: A549
UACC-62 = test system: UACC-62
SF-268 = test system: SF-268
SK-OV-3 = test system: SK-OV-3
SW-620 = test system: SW-620
SR = test system: SR
MOLT-4 = test system: MOLT-4
NCI-H226 = test system: NCI-H226
HCT-116 = test system: HCT-116

## COC(=O)c1nc(N)nc(O)c1CCCCCc1c(O)nc(N)nc1C(=O)OC
SK-MEL-28
  GI50: > 50 µM (inactive)
NCI-H460
  GI50: > 50 µM (inactive)
NCI-H23
  GI50: > 50 µM (inactive)
RXF 393
  GI50: > 50 µM (inactive)
COLO 205
  GI50: > 50 µM (inactive)
SNB-78
  GI50: > 50 µM (inactive)
HT-29
  GI50: > 50 µM (inactive)
UACC-257
  GI50: > 50 µM (inactive)
CCRF-CEM
  GI50: > 50 µM (inactive)
XF498
  GI50: > 50 µM (inactive)
U-251
  GI50: > 50 µM (inactive)
DLD-1
  GI50: > 50 µM (inactive)
SK-MEL-2
  GI50: > 50 µM (inactive)
A498
  GI50: > 50 µM (inactive)
HOP-62
  GI50: > 50 µM (inactive)
M14
  GI50: > 50 µM (inactive)
RPMI-8226
  GI50: > 50 µM (inactive)
LXFL 529
  GI50: > 50 µM (inactive)
DMS-114
  GI50: > 50 µM (inactive)
SN12C
  GI50: > 50 µM (inactive)
NCI-H522
  GI50: > 50 µM (inactive)
K562
  GI50: > 50 µM (inactive)
RXF 631
  GI50: > 50 µM (inactive)
KM12
  GI50: > 50 µM (inactive)
UO-31
  GI50: > 50 µM (inactive)
SNB-19
  GI50: > 50 µM (inactive)
SNB-75
  GI50: > 50 µM (inactive)
SK-MEL-5
  GI50: > 50 µM (inactive)
Malme-3M
  GI50: > 50 µM (inactive)
CAKI-1
  GI50: > 50 µM (inactive)
OVCAR-5
  GI50: > 50 µM (inactive)
HOP-92
  GI50: > 50 µM (inactive)
ACHN
  GI50: > 50 µM (inactive)
LOX IMVI
  GI50: > 50 µM (inactive)
SF-295
  GI50: > 50 µM (inactive)
SF-539
  GI50: > 50 µM (inactive)
OVCAR-8
  GI50: > 50 µM (inactive)
M19-MEL
  GI50: > 50 µM (inactive)
786-0
  GI50: > 50 µM (inactive)
EKVX
  GI50: > 50 µM (inactive)
IGROV-1
  GI50: > 50 µM (inactive)
OVCAR-4
  GI50: > 50 µM (inactive)
HCT-15
  GI50: > 50 µM
HOP-18
  GI50: > 50 µM (inactive)
HL-60
  GI50: > 50 µM (inactive)
TK-10
  GI50: > 50 µM (inactive)
DMS-273
  GI50: > 50 µM (inactive)
HCC 2998
  GI50: > 50 µM (inactive)
KM-20L2
  GI50: > 50 µM (inactive)
OVCAR-3
  GI50: > 50 µM (inactive)
A549
  GI50: > 50 µM (inactive)
UACC-62
  GI50: > 50 µM (inactive)
SF-268
  GI50: > 50 µM (inactive)
SK-OV-3
  GI50: > 50 µM (inactive)
SW-620
  GI50: > 50 µM (inactive)

## CCOc1ccc(Nc2nc(C)c(C(=O)/C=C/c3ccc(Cl)cc3Cl)s2)cc1
SK-MEL-28
  GI50: 22.7 µM (inactive)
NCI-H460
  GI50: 21.4 µM (inactive)
NCI-H23
  GI50: 22.6 µM (inactive)
RXF 393
  GI50: 17.7 µM (inactive)
COLO 205
  GI50: 17.8 µM (inactive)
SNB-78
  GI50: 21.4 µM (inactive)
HT-29
  GI50: 19.7 µM (inactive)
UACC-257
  GI50: 24.6 µM (inactive)
CCRF-CEM
  GI50: 29.8 µM (inactive)
XF498
  GI50: 19.6 µM (inactive)
U-251
  GI50: 19.8 µM (inactive)
DLD-1
  GI50: 26.5 µM (inactive)
SK-MEL-2
  GI50: 24 µM (inactive)
A498
  GI50: 22.8 µM (inactive)
HOP-62
  GI50: 31.3 µM (inactive)
M14
  GI50: 23.9 µM (inactive)
SR
  GI50: 28.6 µM (inactive)
RPMI-8226
  GI50: 46.9 µM (inactive)
LXFL 529
  GI50: 18.8 µM (inactive)
DMS-114
  GI50: 24.9 µM (inactive)
SN12C
  GI50: 19.3 µM (inactive)
NCI-H522
  GI50: 21.1 µM (inactive)
K562
  GI50: 33.2 µM (inactive)
RXF 631
  GI50: 21.8 µM (inactive)
KM12
  GI50: 18.3 µM (inactive)
UO-31
  GI50: 25.2 µM (inactive)
SNB-19
  GI50: 31.4 µM (inactive)
SNB-75
  GI50: 18.5 µM (inactive)
SK-MEL-5
  GI50: 20 µM (inactive)
Malme-3M
  GI50: 26.3 µM (inactive)
CAKI-1
  GI50: 27.1 µM (inactive)
OVCAR-5
  GI50: 40.8 µM (inactive)
HOP-92
  GI50: 30 µM (inactive)
ACHN
  GI50: 27.4 µM (inactive)
LOX IMVI
  GI50: 16.8 µM (inactive)
SF-295
  GI50: 20 µM (inactive)
SF-539
  GI50: 27.8 µM (inactive)
OVCAR-8
  GI50: 21.4 µM (inactive)
M19-MEL
  GI50: 26.1 µM (inactive)
786-0
  GI50: 19.5 µM (inactive)
MOLT-4
  GI50: 23 µM (inactive)
EKVX
  GI50: 31.1 µM (inactive)
IGROV-1
  GI50: 35.5 µM (inactive)
OVCAR-4
  GI50: 10.8 µM (inactive)
HCT-15
  GI50: 22.2 µM
HOP-18
  GI50: 26.3 µM (inactive)
HL-60
  GI50: 27.2 µM (inactive)
TK-10
  GI50: 22.6 µM (inactive)
DMS-273
  GI50: 21.4 µM (inactive)
HCC 2998
  GI50: 23.9 µM (inactive)
KM-20L2
  GI50: 25.4 µM (inactive)
OVCAR-3
  GI50: 20.2 µM (inactive)
A549
  GI50: 23.2 µM (inactive)
UACC-62
  GI50: 24 µM (inactive)
NCI-H226
  GI50: 18.2 µM (inactive)
HCT-116
  GI50: 21.1 µM (inactive)
SF-268
  GI50: 24.7 µM (inactive)
SK-OV-3
  GI50: 28.6 µM (inactive)
SW-620
  GI50: 20.6 µM (inactive)
